Experimental data from the NIST ThermoML archive (doi:10.1021/acs.jced.6b00552).
± gives the expanded uncertainty stated by the source.

Assays:
[1] = Crystal; DSC
[2] = Molar enthalpy of transition or fusion; details: Crystal; DSC

Row | Triple point temperature [1] [K] | Molar enthalpy of transition or fusion [2] [kcal/mol] | Compound
1 | 542.96 ± 1.2 | 13.5 ± 0.837 | O=C(CCc1ccc(O)cc1)c1c(O)cc(O)cc1O [3-(4-hydroxyphenyl)-1-(2,4,6-trihydroxyphenyl)propan-1-one]
2 | 432.22 ± 1.2 | 7.08 ± 0.454 | C[C@@H]1O[C@@H](O[C@H]2[C@H](Oc3cc(O)c(C(=O)CCc4ccc(O)cc4)c(O)c3)O[C@H](CO)[C@@H](O)[C@@H]2O)[C@H](O)[C@H](O)[C@H]1O [naringin dihydrochalcone]
